Experimental data as given in patent US9856293B2, “Methods for inducing nestin expression of astrocytes by nestin-inducing synthetic peptides derived from the BC-box of the SOCS6 protein” (TOAGOSEI CO. LTD., priority 2013, dated 2018).
Ends that are not written are not given here.

Legend:
Type in all cases: cell-based
[1] = tested on: astrocytes derived from rat cerebral cortex (R-CxAs-520); experiment: Nestin expression inducing activity, western blot analysis of nestin and GFAP, astrocytes derived from the cerebral cortex; conditions: peptide 5 μM, 2 days; for expression of GFAP compared to the culture without addition of the peptide: anti-GFAP antibody; for expression of nestin compared to the culture without addition of the peptide: anti-nestin antibody, FIG. 4
Experimental: (§1) Among the synthetic peptides obtained in Example 1, samples 1 to 3 were evaluated for nestin expression inducing activity by western blot analysis using an anti-nestin antibody. Cells used for the test were cultured cells of astrocytes derived from rat cerebral cortex (R-CxAs-520: available from Lonza). A comparative example was carried out without addition of the peptide. The evaluation test is detailed as follows.
In the same manner as in Example 4, the astrocytes derived from rat cerebral cortex were incubated in the presence of the peptide at a peptide concentration of 5 μM for 2 days. After the incubation was completed, total protein was extracted from cultured cells from each experimental sample in the same manner as in Example 3.
SDS-PAGE and western blot analysis were then carried out in the same manner as in Example 3 to examine expression of nestin and GFAP in each experimental sample. An internal standard used in the series of procedures was the GAPDH protein.
Lanes 1, 2, 3 and 4 are the results without addition of the peptide, with addition of sample 2, with addition of sample 3 and with addition of sample 1, respectively.

[2] = tested on: astrocytes derived from rat brain hippocampus (R-HiAs-521); experiment: Nestin expression inducing activity, nestin gene expression by qRT-PCR, astrocytes derived from the hippocampus; conditions: corrected with Actin β, peptide 5 μM, 2 days, FIG. 1
Experimental: (§2) Among the synthetic peptides obtained in Example 1, sample 1 (i.e. the nestin-inducing synthetic peptide of the present invention) was evaluated for nestin expression inducing activity by quantifying the expression level of the nestin gene. Cells used for the test were cultured cells of astrocytes derived from rat brain hippocampus (R-HiAs-521: available from Lonza). The evaluation test is detailed as follows.
The astrocytes derived from rat brain hippocampus were inoculated into a 6-well cell culture plate at a density of 1.0×10^5 cells/well. […]
After the incubation was completed, cultured cells from each experimental sample were washed with Cold PBS (−), and total RNA was extracted and purified using a commercially available RNA extraction and purification kit (NUCLEOSPIN™ RNA/Protein kit: available from Macherey Nagel). […] The purified RNA was quantified using Agilent 2100 Bioanalyzer (available from Agilent Technologies).
The purified RNA was subjected to qRT-PCR to examine the expression level of the nestin gene. […] RT-PCR employed the two-step RT-PCR method and quantitative PCR employed the TAQMAN® method. […]
The cDNA obtained in RT-PCR was then used as a template for quantitative PCR. […] Quantitative PCR reaction was carried out under the conditions of incubation at 95° C. for 10 seconds followed by 45 cycles of 95° C. for 15 seconds, 62° C. for 20 seconds and 72° C. for 20 seconds. […]

[3] = tested on: astrocytes derived from rat brain cerebral cortex (R-CxAs-520); experiment: Nestin expression inducing activity, nestin gene expression by qRT-PCR, astrocytes derived from the cerebral cortex; conditions: corrected with Actin β, peptide 10 μM, 2 days, FIG. 3
Experimental: as §2, with “cerebral cortex (R-CxAs-520:” for “hippocampus (R-HiAs-521:”
The astrocytes derived from rat cerebral cortex were inoculated into a 6-well cell culture plate at a density of 1.0×10^5 cells/well. The cells were incubated in the AG medium overnight in a CO2 incubator at 37° C. and 5% CO2.
After the overnight incubation, the medium was replaced with an AG medium containing the peptide of sample 1 at the amount of 10 μM, and the incubation was continued under the same condition for 2 more days. A comparative example was carried out without addition of the peptide.
After the incubation was completed, total RNA was extracted from cultured cells from each experimental sample in the same manner as in Example 2. […]
The expression level of the nestin gene in each experimental sample was corrected with the expression level of Actin β in each experimental sample. The expression level of each gene is expressed as a value relative to the expression level of the gene in the sample without addition of the peptide being regarded as 1.

[4] = tested on: astrocytes derived from rat brain hippocampus (R-HiAs-521); experiment: Nestin expression inducing activity, western blot analysis of nestin and GFAP, astrocytes derived from the hippocampus; conditions: peptide 5 μM, 3 days
Experimental: as §1, with “sample” for “samples”, “(i.e. the nestin-inducing synthetic peptide of the present invention) was” for “to 3 were”, “brain hippocampus (R-HiAs-521:” for “cerebral cortex (R-CxAs-520:”
In the same manner as in Example 2, the astrocytes derived from rat brain hippocampus were incubated in the presence of the peptide at a peptide concentration of 5 μM for 3 days. After the incubation was completed, cultured cells from each experimental sample were washed with Cold PBS (−), and total protein was extracted using a commercially available protein extraction and purification kit (NucleoSpin™ RNA/Protein kit: available from Macherey Nagel). All procedures were carried out in the absence of proteases according to the instruction attached to the kit. The concentration of the extracted protein was quantified using RC DC Protein assay (available from BIO RAD).
According to the SDS (sodium dodecyl sulphate)-polyacrylamide electrophoresis (SDS-PAGE) and western blot analysis as described below, expression of nestin and GFAP in each experimental sample was examined. An internal standard used in the series of procedures was the GAPDH protein.
Specifically, proteins obtained from each experimental sample and a molecular weight marker (MagicMark™ XP Western Protein Standard: available from Life Technologies) were injected to a well of an SDS-polyacrylamide gel (precast gel for electrophoresis: available from Oriental Instruments Co., Ltd.) and SDS-PAGE was carried out. Electrophoresis of nestin was carried out on a 7.5% SDS-polyacrylamide gel and electrophoresis of GFAP and the GAPDH protein was carried out on a 5-20% SDS-polyacrylamide gel.
The proteins separated by SDS-PAGE were transferred (blotting) onto a PVDF (polyvinylidene difluoride) membrane which was then blocked in Perfect-Block (available from MoBiTec) diluted to 5% in PBS (−) containing Tween 20™ (hereinafter referred to as PBST (−)).
Nestin, GFAP and the GAPDH protein were detected with primary antibodies, an anti-nestin antibody (murine, available from Merck Millipore), an anti-GFAP antibody (murine, available from Progen Biotechnik) and an anti-GAPDH antibody (murine, available from Merck Millipore) diluted 500-, 5000- and 10000-fold, respectively, in PBST (−) by the reaction for 1 hour at room temperature. […]
Target proteins were then detected by reaction with the ECL prime Western blotting detection reagent (available from GE Healthcare) using the Luminescent image analyser LAS-3000 (available from Fujifilm Corporation). […]

Row | Sequence | expression of GFAP compared to the culture without addition of the peptide [1] | expression of nestin compared to the culture without addition of the peptide [1] | expression of the nestin gene compared to the culture without addition of the peptide [2] | expression of the nestin gene compared to the culture without addition of the peptide [3] | expression of GFAP compared to the culture without addition of the peptide ([4]; anti-GFAP antibody) | expression of nestin compared to the culture without addition of the peptide ([4]; anti-nestin antibody, FIG. 2) | co-expression of GFAP and nestin [4] | expression of nestin, times higher than the culture without addition of the peptide [4] | co-expression of GFAP and nestin [1] | expression of nestin, times higher than the culture without addition of the peptide [1]
1 | NLQDLCRIKIRQCIGKKRTLRKNDRKKR (NLQDLCRIKIRQCIGKKRTLRKNDRKKR-NH2; cysteine pairing not given here) [sample 2, reference compound] | difference in expression of nestin or GFAP was not confirmed | difference in expression of nestin or GFAP was not confirmed | – | – | – | – | – | – | – | –
2 | SLQYLCRFVIRQYTRKKRTLRKNDRKKR (SLQYLCRFVIRQYTRKKRTLRKNDRKKR-NH2) [sample 1] | difference in expression of GFAP was not confirmed | significant increase | significant increase | significant increase | difference in expression of GFAP was not confirmed | significant increase | co-expressed | ≥ 2 times | co-expressed | ≥ 2 times
3 | TLHQQCIRVLKNNIDKKRTLRKNDRKKR (TLHQQCIRVLKNNIDKKRTLRKNDRKKR-NH2) [sample 3, reference compound] | difference in expression of nestin or GFAP was not confirmed | difference in expression of nestin or GFAP was not confirmed | – | – | – | – | – | – | – | –
